{"source": "paper PMC3781056", "about": "“New Pyrazolopyrimidine Inhibitors of Protein Kinase D as Potent Anticancer Agents for Prostate Cancer Cells” (PLoS ONE, 2013)", "note": "Structures can show the parent of a compound that is named as a salt.", "data": [{"molecular_target": "T1, PKD1 (Homo sapiens, UniProt Q15139)", "T1 construct": "GST; purchased Enzo Life sciences (Farmingdale, NY)", "T1 sequence (Q15139 1-912)": "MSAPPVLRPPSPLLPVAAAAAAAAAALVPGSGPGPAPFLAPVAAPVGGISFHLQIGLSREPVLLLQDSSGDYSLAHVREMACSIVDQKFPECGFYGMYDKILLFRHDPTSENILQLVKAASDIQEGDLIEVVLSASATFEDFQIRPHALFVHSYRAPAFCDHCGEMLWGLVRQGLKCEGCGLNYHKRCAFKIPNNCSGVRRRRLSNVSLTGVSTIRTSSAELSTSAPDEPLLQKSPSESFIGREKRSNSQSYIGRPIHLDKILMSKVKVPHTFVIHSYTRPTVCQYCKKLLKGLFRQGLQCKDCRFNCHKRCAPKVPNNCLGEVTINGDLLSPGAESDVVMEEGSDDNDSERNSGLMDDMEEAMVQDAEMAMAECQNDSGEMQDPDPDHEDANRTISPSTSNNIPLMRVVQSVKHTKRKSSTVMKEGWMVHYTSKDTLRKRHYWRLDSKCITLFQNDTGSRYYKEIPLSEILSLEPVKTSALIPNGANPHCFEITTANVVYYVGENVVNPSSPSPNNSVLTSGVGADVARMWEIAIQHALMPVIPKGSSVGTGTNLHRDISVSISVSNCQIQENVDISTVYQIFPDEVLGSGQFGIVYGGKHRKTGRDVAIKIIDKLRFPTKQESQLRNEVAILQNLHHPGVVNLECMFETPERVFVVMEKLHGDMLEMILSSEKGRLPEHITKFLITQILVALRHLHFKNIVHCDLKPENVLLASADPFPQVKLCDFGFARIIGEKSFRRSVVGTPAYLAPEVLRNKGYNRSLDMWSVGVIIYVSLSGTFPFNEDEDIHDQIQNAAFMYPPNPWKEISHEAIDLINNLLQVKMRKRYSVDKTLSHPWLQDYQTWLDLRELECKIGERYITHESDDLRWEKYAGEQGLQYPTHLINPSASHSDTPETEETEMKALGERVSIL", "experiment": "In vitro radiometric PKD1 screening assay at 1 µM", "format": "biochemical", "conditions": "1 µM; targeted kinase inhibitor library screen; relative to DMSO", "experimental": "(§1) Phosphorylation of HDAC5 was detected in a kinase reaction having 1 µCi [γ-^32P] […] The reaction was incubated at 30°C for 10 minutes and 25 µL of the reaction was spotted on Whatman P81 filter paper. The filter paper was washed 3 times in 0.5% phosphoric acid, air dried and counted using Beckman LS6500 multipurpose scintillation counter. Percent PKD1 inhibition was graphed using GraphPad Prism software 5.0.", "units": {"% PKD1 Inhibition": "%"}, "values": [{"compound": "CS(=O)(=O)O.Cn1cc(C2=C(c3cn(CCCSC(=N)N)c4ccccc34)C(=O)NC2=O)c2ccccc21", "note": "[Ro 31-8220 Mesylate]", "% PKD1 Inhibition": 72}, {"compound": "O=C1Nc2cc(Br)ccc2/C1=C1/Nc2ccccc2/C1=N\\O", "note": "[BIO]", "% PKD1 Inhibition": 47}, {"compound": "O=C1NC(=O)c2c1c1c3ccccc3n3c1c1c2c2ccccc2n1C1CCC3O1", "note": "[SB 218078]", "% PKD1 Inhibition": 85}, {"compound": "O=C1NC(=O)c2c1c1c3ccccc3[nH]c1c1[nH]c3ccccc3c21", "note": "[Arcyriaflavin A]", "% PKD1 Inhibition": 75}, {"compound": "NC(=O)c1ccc(-c2nc(-c3ccc4c(c3)OCCO4)c(-c3ccccn3)[nH]2)cc1", "note": "[D 4476]", "% PKD1 Inhibition": 45}, {"compound": "Fc1ccc(Cl)cc1-c1nc(Nc2ccncc2)c2nccnc2n1", "note": "[SD 208]", "% PKD1 Inhibition": 74}, {"compound": "Cc1ccccc1C(=O)c1ccc(Nc2ccc(Br)cc2N)cc1Cl", "note": "[EO 1428]", "% PKD1 Inhibition": 68}, {"compound": "Cl.Cl.O=S(=O)(NCCNC/C=C/c1ccc(Br)cc1)c1cccc2cnccc12", "note": "[H 89 Dihydrochloride]", "% PKD1 Inhibition": 66}]}, {"molecular_target": "T1, PKD1", "experiment": "In vitro radiometric PKD1 screening assay at 1 µM", "format": "biochemical", "conditions": "1 µM; targeted kinase inhibitor library screen; relative to DMSO; read-out: % PKD1 Inhibition", "experimental": "as §1", "units": {"inhibition at 1 µM": "%"}, "values": [{"compound": "O=S(=O)(c1cccc2cnccc12)N1CCCNCC1", "note": "[Fasudil hydrochloride]", "inhibition at 1 µM": 41}, {"compound": "Oc1c2ccccc2c2c3c(cccc13)N=N2", "note": "[SP 600125]", "inhibition at 1 µM": 74}]}, {"molecular_target": "T1, PKD1", "experiment": "In vitro radiometric PKD1 screening assay at 1 µM", "format": "biochemical", "conditions": "SAR of synthesized 1-NA-PP1 analogs", "experimental": "as §1", "values": [{"compound": "CNc1nc(Cl)nc2c1c(-c1ccc(OC(F)(F)F)cc1)nn2C", "note": "[Compound 1m, 6-Chloro-N,1-dimethyl-3-(4-(trifluoromethoxy)phenyl)-1H-pyrazolo[3,4-d]pyrimidin-4-amine]", "PKD1 inhibitory activity, SAR result in words": "did not show an increase in potency"}, {"compound": "CNc1nc(Cl)nc2c1c(-c1ccc(OC)cc1)nn2C", "note": "[Compound 1k, 6-Chloro-3-(4-methoxyphenyl)-N,1-dimethyl-1H-pyrazolo[3,4-d]pyrimidin-4-amine]", "PKD1 inhibitory activity, SAR result in words": "did not show an increase in potency"}, {"compound": "CNc1ncnc2c1c(-c1ccc(-c3ccccc3)cc1)nn2C", "note": "[Compound 1p, 3-([1,1'-Biphenyl]-4-yl)-N,1-dimethyl-1H-pyrazolo[3,4-d]pyrimidin-4-amine]", "PKD1 inhibitory activity, SAR result in words": "did not show an increase in potency"}, {"compound": "CNc1ncnc2c1c(-c1cccc3ccccc13)nn2C(C)(C)C", "note": "[Compound 1a, 1-(t-Butyl)-N-methyl-3-(naphthalen-1-yl)-1H-pyrazolo[3,4-d]pyrimidin-4-amine]", "PKD1 inhibitory activity, SAR result in words": "ablated the PKD1 activity"}, {"compound": "COc1ccc(-c2nn(C)c3nc(Cl)nc(N)c23)cc1", "note": "[Compound 1j, 6-Chloro-3-(4-methoxyphenyl)-1-methyl-1H-pyrazolo[3,4-d]pyrimidin-4-amine]", "PKD1 inhibitory activity, SAR result in words": "did not show an increase in potency"}]}, {"molecular_target": "T1, PKD1", "experiment": "In vitro radiometric PKD1 screening assay at 1 µM", "format": "biochemical", "conditions": "read-out: inhibition of PKD1 activity", "experimental": "as §1", "units": {"inhibition at 1 µM": "%"}, "values": [{"compound": "Cn1nc(-c2cccc3ccccc23)c2c(N)ncnc21", "note": "[Compound 1f, 1-Methyl-3-(naphthalen-1-yl)-1H-pyrazolo[3,4-d]pyrimidin-4-amine]", "inhibition at 1 µM": 32}]}, {"molecular_target": "T2, PKCα (Homo sapiens, UniProt P17252)", "T2 construct": "purchased SignalChem (Richmond, BC, Canada)", "experiment": "In vitro radiometric PKC kinase assay", "format": "biochemical", "conditions": "0.1, 1 and 10 µM", "experimental": "(§2) The PKC kinase assay was carried out by co-incubating 1 µCi [γ-^32P]ATP, 20 µM ATP, 50 ng of purified PKCα or PKCδ and 5 µg of myelin basic protein 4–14, 0.25 mg/mL bovine serum albumin, 0.1 mg/mL phosphatidylcholine/phosphatidylserine (80/20%) (1 µM), 1 µM phorbol dibutyrate in 50 µL of kinase buffer containing 50 mM Tris-HCl, pH 7.5, 4 mM MgCl2 and 10 mM β-mercaptoethanol. For the CAMK assay, 50 ng of CAMKIIα and 2 µg syntide-2 substrate in 50 µL kinase buffer were incubated with 0.1 mM MgCl2, 1 µCi of [γ-^32P] ATP, 70 µM ATP. 0.5 mM CaCl2 and 30 ng/µL calmodulin were preincubated for 15 min on ice and then added in the kinase reaction. The reactions were incubated at 30°C for 10 min and 25 µL of the reaction was spotted on Whatman P81 filter paper. The filter paper was washed 3 times in 0.5% phosphoric acid, air dried and counted using Beckman LS6500 multipurpose scintillation counter.", "values": [{"compound": "CN(C)CCCn1cc(C2=C(c3c[nH]c4ccccc34)C(=O)NC2=O)c2ccccc21", "note": "[GF109203X, reference compound]", "inhibition of PKCα, in words": "potently and concentration-dependently inhibited"}]}, {"molecular_target": "T3, PKCδ (Homo sapiens, UniProt Q05655)", "T3 construct": "purchased SignalChem (Richmond, BC, Canada)", "T3 sequence (Q05655 whole entry)": "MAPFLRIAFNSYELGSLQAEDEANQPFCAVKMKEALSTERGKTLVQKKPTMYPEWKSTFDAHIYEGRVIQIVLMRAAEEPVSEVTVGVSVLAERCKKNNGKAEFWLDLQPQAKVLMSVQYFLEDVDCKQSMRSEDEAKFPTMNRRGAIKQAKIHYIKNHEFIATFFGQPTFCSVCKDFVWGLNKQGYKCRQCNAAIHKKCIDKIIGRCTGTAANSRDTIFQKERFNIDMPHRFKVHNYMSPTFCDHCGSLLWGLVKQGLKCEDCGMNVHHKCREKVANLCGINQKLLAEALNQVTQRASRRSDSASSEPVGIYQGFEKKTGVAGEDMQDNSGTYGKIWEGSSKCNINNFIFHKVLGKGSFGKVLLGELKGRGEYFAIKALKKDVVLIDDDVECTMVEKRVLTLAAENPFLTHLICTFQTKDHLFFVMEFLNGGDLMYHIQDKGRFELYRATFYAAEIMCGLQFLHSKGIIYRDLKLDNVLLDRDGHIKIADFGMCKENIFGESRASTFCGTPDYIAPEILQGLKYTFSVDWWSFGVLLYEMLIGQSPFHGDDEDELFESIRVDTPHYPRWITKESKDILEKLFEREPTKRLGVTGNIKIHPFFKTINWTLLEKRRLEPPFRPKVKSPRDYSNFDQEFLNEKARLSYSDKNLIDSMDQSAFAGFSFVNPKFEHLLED", "experiment": "In vitro radiometric PKC kinase assay", "format": "biochemical", "conditions": "0.1, 1 and 10 µM", "experimental": "as §2", "values": [{"compound": "CN(C)CCCn1cc(C2=C(c3c[nH]c4ccccc34)C(=O)NC2=O)c2ccccc21", "note": "[GF109203X, reference compound]", "inhibition of PKCδ, in words": "potently and concentration-dependently inhibited"}]}, {"tested_on": "not given", "experiment": "not given", "conditions": "not given", "units": {"melting point": "°C"}, "values": [{"compound": "COc1ccc(-c2nn(C)c3ncnc(N)c23)cc1", "note": "[Compound 1h, 3-(4-Methoxyphenyl)-1-methyl-1H-pyrazolo[3,4-d]pyrimidin-4-amine]", "melting point": "185 to 188"}, {"compound": "CNc1nc(Cl)nc2c1c(-c1ccc(OC)cc1)nn2C", "note": "[Compound 1k, 6-Chloro-3-(4-methoxyphenyl)-N,1-dimethyl-1H-pyrazolo[3,4-d]pyrimidin-4-amine]", "melting point": "159.3 to 160.9"}, {"compound": "CNc1ncnc2c1c(-c1cccc3ccccc13)nn2C(C)(C)C", "note": "[Compound 1a, 1-(t-Butyl)-N-methyl-3-(naphthalen-1-yl)-1H-pyrazolo[3,4-d]pyrimidin-4-amine]", "melting point": "152.4 to 156.3"}, {"compound": "CNc1ncnc2c1c(-c1ccc(OC)cc1)nn2C(C)(C)C", "note": "[Compound 1c, 1-(t-Butyl)-3-(4-methoxyphenyl)-N-methyl-1H-pyrazolo[3,4-d]pyrimidin-4-amine]", "melting point": "89.3 to 91.2"}, {"compound": "COc1ccc(-c2nn(C)c3nc(Cl)nc(N)c23)cc1", "note": "[Compound 1j, 6-Chloro-3-(4-methoxyphenyl)-1-methyl-1H-pyrazolo[3,4-d]pyrimidin-4-amine]", "melting point": "> 250"}, {"compound": "CNc1nc(Cl)nc2c1c(-c1ccc(F)cc1)nn2C", "note": "[Compound 1o, 6-Chloro-3-(4-fluorophenyl)-N,1-dimethyl-1H-pyrazolo[3,4-d]pyrimidin-4-amine]", "melting point": "189.9 to 192.3"}]}]}
